Measurements reported in patent US20130184273A1, “BICYCLIC PYRIMIDINES” (Bayer Intellectual Property GmbH, priority 2010, published 2013).

Experiments:
[1] = target: T1, His-tagged human recombinant kinase full-length Akt2 (Homo sapiens, UniProt P31751); assay: Akt2 kinase assay (TR-FRET); format: biochemical; details: 10 μM ATP, 60 min at 22° C., read-out: Akt2, median IC50
T1 construct: His-tagged human recombinant kinase full-length Akt2; His; purchased Invitrogen PV 3975; host or cells: insect cells
From the text: Akt2 inhibitory activity of compounds of the present invention was quantified employing the Akt2 TR-FRET assay as described in the following paragraphs.
(§1) His-tagged human recombinant kinase full-length Akt2 expressed in insect cells and activated by PDK1 was purchased form Invitrogen (part number PV 3975). As substrate for the kinase reaction the biotinylated peptide biotin-Ahx-KKLNRTLSFAEPG (C-terminus in amide form) was used which can be purchased e.g. from the company Biosynthan GmbH (Berlin-Buch, Germany).
(§2) For the assay 50 nl of a 100 fold concentrated solution of the test compound in DMSO was pipetted into a black low volume 384well microtiter plate (Greiner Bio-One, Frickenhausen, Germany), 2 μl of a solution of Akt2 in assay buffer [50 mM TRIS/HCl pH 7.5, 5 mM MgCl2, 1 mM dithiothreitol, 0.02% (v/v) Triton X-100 (Sigma)] were added and the mixture was incubated for 15 min at 22° C. to allow pre-binding of the test compounds to the enzyme before the start of the kinase reaction. Then the kinase reaction was started by the addition of 3 μl of a solution of adenosine-tri-phosphate (ATP, 16.7 μM=>final conc. in the 5 μl assay volume is 10 μM) and substrate (1.67 μM=>final conc. in the 5 μl assay volume is 1 μM) in assay buffer and the resulting mixture was incubated for a reaction time of 60 min at 22° C. The concentration of Akt2 in the assay was adjusted depending of the activity of the enzyme lot and was chosen appropriate to have the assay in the linear range, typical enzyme concentrations were in the range of about 0.2 ng/μl (final conc. in the 5 μl assay volume).
The reaction was stopped by the addition of 5 μl of a solution of HTRF detection reagents (200 nM streptavidine-XL665 [Cisbio] and 1.5 nM anti-phosho-Serine antibody [Millipore, cat. #35-001] and 0.75 nM LANCE Eu-W 1024 labeled anti-mouse IgG antibody [Perkin Elmer]) in an aqueous EDTA-solution (100 mM EDTA, 0.1% (w/v) bovine serum albumin in 50 mM HEPES/NaOH pH 7.5).
The resulting mixture was incubated 1 h at 22° C. to allow the binding of the biotinylated phosphorylated peptide to the streptavidine-XL665 and the antibodies.
Subsequently the amount of phosphorylated substrate was evaluated by measurement of the resonance energy transfer from the anti-mouse-IgG-Eu-Chelate to the streptavidine-XL665. Therefore, the fluorescence emissions at 620 nm and 665 nm after excitation at 350 nm was measured in a TR-FRET reader, e.g. a Rubystar (BMG Labtechnologies, Offenburg, Germany) or a Viewlux (Perkin-Elmer). The ratio of the emissions at 665 nm and at […] was taken as the measure for the amount of phosphorylated substrate. The data were normalised (enzyme reaction without inhibitor=0% inhibition, all other assay components but no enzyme=100% inhibition).

[2] = test system: KPL-4 breast cancer cell line; assay: Tumor cell proliferation assay (CellTiter-Glo); format: cell-based; details: KPL4, 72 h drug exposure
Description: Compounds were tested in a cell-based assay that measures the capacity of the compounds to inhibit tumour cell proliferation following a 72 h drug exposure. Cell viability is determined using CellTiter-Glow® (CTG, Promega, cat #G7571/2/3). The CellTiter-Glo® Luminescent Cell Viability Assay is a homogeneous method to determine the number of viable cells in culture. Detection is based on using the luciferase reaction to measure the amount of ATP from viable cells. The amount of ATP in cells correlates with cell viability. Within minutes after a loss of membrane integrity, cells lose the ability to synthesize ATP, and endogenous ATPases destroy any remaining ATP; thus the levels of ATP fall precipitously.
Cells were plated at 3000-5000 cells/well (depending on the cell lines) in 90 μL growth medium on MTPs (Corning; #3603, black plate, clear flat bottom). For each cell line assayed, cells were plated onto a separate plate for determination of […] at t=0 hour and t=72 hour time points. Following overnight incubation at 37° C., chemiluminescence values for the t=0 samples were determined after adding 10 μl medium and 100 μl CTG solution according to manufacture protocol. Plates for the t=72 hour time points were treated with compounds diluted into growth medium at ten times final concentration added in 10 μL to the cell culture plate. Cells were then incubated for 72 hours at 37° C. Chemiluminescence values for the t=72 hour samples were determined. […] Experiments were controlled using a reference compound as standard.

[3] = target: T2, His-tagged human recombinant kinase full-length Akt1 (Homo sapiens, UniProt P31749); assay: Akt1 kinase assay (TR-FRET); format: biochemical; details: 10 μM ATP, 60 min at 22° C., read-out: Akt1, median IC50
T2 construct: His-tagged human recombinant kinase full-length Akt1; His; purchased Invitrogen PV 3599; host or cells: insect cells
From the text: Akt1 inhibitory activity of compounds of the present invention was quantified employing the Akt1 TR-FRET assay as described in the following paragraphs.
as §1, with “Akt1” for “Akt2”, “cells” for “cells and activated by PDK1”, “3599).” for “3975).”
as §2, with “Akt1” for “Akt2”, “0.05” for “0.2”
The reaction was stopped by the addition of 5 μl of a solution of HTRF detection reagents (200 nM streptavidine-XL665 [Cisbio] and 1.5 nM anti-phosho-Serine antibody [Millipore, cat. #35-001] and 0.75 nM LANCE Eu-W 1024 labeled anti-mouse IgG antibody [Perkin Elmer]) in an aqueous EDTA-solution (100 mM EDTA, 0.1% (w/v) bovine serum albumin in 50 mM HEPES/NaOH pH 7.5). The resulting mixture was incubated 1 h at 22° C. to allow the binding of the biotinylated phosphorylated peptide to the streptavidine-XL665 and the antibodies. Subsequently the amount of phosphorylated substrate was evaluated by measurement of the resonance energy transfer from the anti-mouse-IgG-Eu-Chelate to the streptavidine-XL665. Therefore, the fluorescence emissions at 620 nm and 665 nm after excitation at 350 nm was measured in a HTRF reader, e.g. a Rubystar (BMG Labtechnologies, Offenburg, Germany) or a Viewlux (Perkin-Elmer). The ratio of the emissions at 665 nm and at […] was taken as the measure for the amount of phosphorylated substrate. The data were normalised (enzyme reaction without inhibitor=0% inhibition, all other assay components but no enzyme=100% inhibition).

T2 sequence (P31749 whole entry): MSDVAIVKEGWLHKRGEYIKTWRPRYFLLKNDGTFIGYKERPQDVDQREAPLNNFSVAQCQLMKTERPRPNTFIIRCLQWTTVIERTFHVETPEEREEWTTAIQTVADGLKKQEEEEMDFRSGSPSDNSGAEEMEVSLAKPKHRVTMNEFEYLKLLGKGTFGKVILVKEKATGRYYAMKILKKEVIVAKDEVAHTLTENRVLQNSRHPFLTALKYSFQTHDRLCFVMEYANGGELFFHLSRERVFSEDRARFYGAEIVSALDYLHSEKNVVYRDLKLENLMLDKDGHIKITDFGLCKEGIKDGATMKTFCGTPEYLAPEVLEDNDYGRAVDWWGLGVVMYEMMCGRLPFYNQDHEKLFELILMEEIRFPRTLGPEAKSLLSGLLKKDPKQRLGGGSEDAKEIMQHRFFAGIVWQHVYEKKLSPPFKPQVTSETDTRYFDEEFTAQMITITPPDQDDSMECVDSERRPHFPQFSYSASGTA
T1 sequence (P31751 whole entry): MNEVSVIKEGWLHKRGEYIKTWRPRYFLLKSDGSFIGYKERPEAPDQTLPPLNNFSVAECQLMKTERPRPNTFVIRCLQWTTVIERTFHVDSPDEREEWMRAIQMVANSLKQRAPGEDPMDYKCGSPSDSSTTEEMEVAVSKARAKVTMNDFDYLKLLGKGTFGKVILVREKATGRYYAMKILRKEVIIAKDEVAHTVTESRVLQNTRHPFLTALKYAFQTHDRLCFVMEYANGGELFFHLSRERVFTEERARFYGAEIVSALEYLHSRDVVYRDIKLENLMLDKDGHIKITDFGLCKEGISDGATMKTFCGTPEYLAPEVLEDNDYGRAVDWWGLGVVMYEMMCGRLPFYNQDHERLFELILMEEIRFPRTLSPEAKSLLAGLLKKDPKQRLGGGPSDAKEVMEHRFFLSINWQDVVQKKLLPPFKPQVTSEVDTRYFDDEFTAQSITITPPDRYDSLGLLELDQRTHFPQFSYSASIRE

Structure (SMILES) | IC50 [1] | IC50 [2] | IC50 [3]
NC1(c2ccc(-c3nc4nc(C5CC5)nn4cc3-c3ccccc3)cc2)CCC1 [Example 1-4, 1-[4-(2-cyclopropyl-6-phenyl-[1,2,4]triazolo[1,5-a]pyrimidin-5-yl)-phenyl]-cyclobutylamine] | 408 nM | 1410 nM | 755 nM
Cc1cn2c(NC3CC3)c(-c3ccccc3)c(-c3ccc(C4(N)CCC4)cc3)nc2n1 [Example 2-5, {7-[4-(1-Amino-cyclobutyl)-phenyl]-2-methyl-6-phenyl-imidazo[1,2-a]pyrimidin-5-yl)-cyclopropylamine] | 540 nM | 3620 nM | 
CC(C)(C)Nc1c(-c2ccccc2)c(-c2ccc(C3(N)CCC3)cc2)nc2nc(-c3ccccn3)nn12 [Example 3-0, {5-[4-(1-Aminocyclobutyl)-phenyl]-6-phenyl-2-pyridine-2-yl-[1,2,4]triazolo[1,5-a]pyrimidin-7-yl}-tert.-butylamine] | 61 nM | 1740 nM | 1130 nM
CNc1nc2nc(-c3ccc(C4(N)CCC4)cc3)c(-c3ccccc3)cn2n1 [Example 5-3, {5-[4-(1-amino-cyclobutyl)-phenyl]-6-phenyl-[1,2,4]triazolo[1,5-a]pyrimidin-2-yl}-methyl-amine] | 381 nM | 2170 nM | 527 nM
NC1(c2ccc(-c3nc4nc(Nc5ccccc5)nn4cc3-c3ccccc3)cc2)CCC1 [Example 5-4, {5-[4-(1-Amino-cyclobutyl)-phenyl]-6-phenyl-[1,2,4]triazolo[1,5-a]pyrimidin-2-yl}-phenyl-amine] | 197 nM | 6190 nM | 283 nM
CC(C)Nc1nc2nc(-c3ccc(C4(N)CCC4)cc3)c(-c3ccccc3)cn2n1 [Example 5-5, {5-[4-(1-amino-cyclobutyl)-phenyl]-6-phenyl-[1,2,4]triazolo[1,5-a]pyrimidin-2-yl}-isopropyl-amine] | 234 nM | 2200 nM | 1470 nM
Cc1nc2nc(-c3ccc(C4(N)CCC4)cc3)c(-c3ccccc3)c(NC3CCC3)n2n1 [Example 5-8, {5-[4-(1-amino-cyclobutyl)-phenyl]-2-methyl-6-phenyl-[1,2,4]triazolo[1,5-a]pyrimidin-7-yl}-cyclobutyl-amine] | 303 nM | 3640 nM | 731 nM
CCNc1c(-c2ccccc2)c(-c2ccc(C3(N)CCC3)cc2)nc2nc(C)nn12 [Example 5-11, {5-[4-(1-amino-cyclobutyl)-phenyl]-2-methyl-6-phenyl-[1,2,4]triazolo[1,5-a]pyrimidin-7-yl}-ethyl-amine] | 1120 nM |  | 1730 nM
Cc1nc2nc(-c3ccc(C4(N)CCC4)cc3)c(-c3ccccc3)c(NC3CC3)n2n1 [Example 5-12, {5-[4-(1-amino-cyclobutyl)-phenyl]-2-methyl-6-phenyl-[1,2,4]triazolo[1,5-a]pyrimidin-7-yl}-cyclopropyl-amine] | 904 nM |  | 1850 nM
CNc1c(-c2ccccc2)c(-c2ccc(C3(N)CCC3)cc2)nc2nc(C)nn12 [Example 5-13, {5-[4-(1-amino-cyclobutyl)-phenyl]-2-methyl-6-phenyl-[1,2,4]triazolo[1,5-a]pyrimidin-7-yl}-methyl-amine] | 2240 nM |  | 2240 nM
COCCNc1c(-c2ccccc2)c(-c2ccc(C3(N)CCC3)cc2)nc2nc(C)nn12 [Example 5-14, {5-[4-(1-amino-cyclobutyl)-phenyl]-2-methyl-6-phenyl-[1,2,4]triazolo[1,5-a]pyrimidin-7-yl}-(2-methoxy-ethyl)-amine] | 2320 nM |  | 3250 nM
NC1(c2ccc(-c3nc4nc(C5CC5)nn4c(N[C@H]4CC[C@H](O)CC4)c3-c3ccccc3)cc2)CCC1 [Example 5-15, 4-{5-[4-(1-amino-cyclobutyl)-phenyl]-2-cyclopropyl-6-phenyl-[1,2,4]triazolo[1,5-a]pyrimidin-7-ylamino}-cyclohexanol] | 936 nM |  | 11600 nM
